Columns and labels:
[1] = test system: β-amyloid production by 7W WT APP751 CHO cells; assay: Measurement of Aβ1-40 and Aβ1-42 by ELISA in culture medium (Example 1, calcium channel blockers); assay type: cell-based, Chinese hamster
Method: Chinese hamster ovary (CHO) cells, stably transfected with human APP751 (7W WT APP751 CHO cells) were used. See, e.g., Koo and Squazzo, J. Biol. Chem., Vol. 269, Issue 26, 17386-17389, July, 1994. The cells were maintained in DMEM medium supplemented with 10% fetal bovine serum and 1× mixture of penicillin/streptomycin/fungizone/glutamine mixture (Cambrex, MD) geneticin as selecting agent in 75 cm^2 cell culture flasks.
The 7W WT APP751 CHO cells were plated in 24-well cell culture plates in quadruplicate, containing 1 ml of culture medium, and treated with various calcium channel blocker compounds for 4 hours, 24 hours or 48 hours at 37° C. and 5% CO2. All test compounds were diluted in dimethyl sulfoxide (DMSO) before being added to the cultured confluent 7W WT APP751 CHO cells. The culture medium was collected and diluted 5-fold for the 4 hours assay and 50-fold for the 24 hour assay before being assayed by ELISAs for Aβ1-40 and Aβ1-42, respectively. Concentrations of Aβ1-40 and Aβ1-42, expressed in pg/ml, were determined using commercially available ELISAs (Biosource, CA) in a colorimetric assay using labeled antibodies detected spectrophotometrically.
G-sec Inhib XIX, SKF 96365, 2-APB, felodipine, FPL, clotrimazole, tetrandrine, R24571, and econazole are available, as Calbiochem products from EMD Biosciences, Inc., La Jolla, Calif.; nilvadipine, nitrendipine and amlodipine (amlodipine besylate) are available, e.g., from Fujisawa, Osaka, Japan; thapsigargin, BAPTA-AM and TA9 (Tyrphostin A9) are available, e.g., as a Sigma product from Sigma-Aldrich Corp., St. Louis, Mo.; and felodipine, diltiazem, S(−)Bay K8644, R(+)Bay K8644, MRS 1845, SR 33805, loperamide, and isradipine are available from Tocris Cookson Inc., Ellisville, Mo.

| SMILES | melting point [°C] | also measured |
| --- | --- | --- |
| CC1=C(C(=O)OC(C)(C)C)C(c2cc(Cl)ccc2Cl)C(C(=O)OC(C)(C)C)=C(C)N1 [Example 35, Di-tert-butyl 4-(2,5-dichlorophenyl)-1,4-dihydro-2,6-dimethylpyridine-3,5-dicarboxylate] | 181 to 183 |  |
| CCOC(=O)C1=C(C)NC(C)=C(C(=O)OCC)C1c1c(Cl)cccc1Cl [Example 36, Diethyl 4-(2,6-dichlorophenyl)-1,4-dihydro-2,6-dimethylpyridine-3,5-dicarboxylate] | 134 to 135 |  |
| CCOC(=O)C1=C(C)NC(C)=C(C(=O)OCC)C1c1cc(Cl)cc(Cl)c1 [Example 37, Diethyl 4-(3,5-dichlorophenyl)-1,4-dihydro-2,6-dimethylpyridine-3,5-dicarboxylate] | 102 to 104 |  |
| CCOC(=O)C1=C(C)NC(C)=C(C(=O)OCC)C1c1cccc(F)c1F [Example 38, Diethyl 4-(2,3-difluorophenyl)-1,4-dihydro-2,6-dimethylpyridine-3,5-dicarboxylate] | 161 to 162 |  |
| C=CCOC(=O)C1=C(C)NC(C)=C(C(=O)OCC=C)C1c1ccc(Br)cc1 [Example 40, Diallyl 4-(4-bromophenyl)-1,4-dihydro-2,6-dimethylpyridine-3,5-dicarboxylate] | 130 to 131 |  |
| CC1=C(C(=O)OC(C)(C)C)C(c2ccc(F)c(Br)c2)C(C(=O)OC(C)(C)C)=C(C)N1 [Example 42, Di-tert-butyl 4-(3-bromo-4-fluorophenyl)-1,4-dihydro-2,6-dimethylpyridine-3,5-dicarboxylate] | 171 to 172 |  |
| CCOC(=O)C1=C(C)NC(C)=C(C(=O)OCC)C1c1ccc(Br)cc1F [Example 43, Diethyl 4-(4-bromo-2-fluorophenyl)-1,4-dihydro-2,6-dimethylpyridine-3,5-dicarboxylate] | 154 to 155 |  |
| CC1=C(C(=O)OC(C)(C)C)C(c2ccc(Br)cc2F)C(C(=O)OC(C)(C)C)=C(C)N1 [Example 44, Di-tert-butyl 4-(4-bromo-2-fluorophenyl)-1,4-dihydro-2,6-dimethylpyridine-3,5-dicarboxylate] | 187 to 188 |  |
| COCCOC(=O)C1=C(C)NC(C)=C(C(=O)OCCOC)C1c1ccc(Br)cc1 [Example 46, Bis(2-methoxyethyl) 4-(4-bromophenyl)-1,4-dihydro-2,6-dimethylpyridine-3,5-dicarboxylate] | 116 to 117 |  |
| CCOC(=O)C1=C(C)NC(C)=C(C(=O)OCC)C1c1cc(Br)ccc1F [Example 47, Diethyl 4-(5-bromo-2-fluorophenyl)-1,4-dihydro-2,6-dimethylpyridine-3,5-dicarboxylate] | 118 to 119 |  |
| CC1=C(C(=O)OC(C)(C)C)C(c2cc(Br)ccc2F)C(C(=O)OC(C)(C)C)=C(C)N1 [Example 48, Di-tert-butyl 4-(5-bromo-2-fluorophenyl)-1,4-dihydro-2,6-dimethylpyridine-3,5-dicarboxylate] | 173 to 174 |  |
| CC1=C(C(=O)OC(C)(C)C)C(c2cccc(F)c2)C(C(=O)OC(C)(C)C)=C(C)N1 [Example 50, Di-tert-butyl 4-(3-fluorophenyl)-1,4-dihydro-2,6-dimethylpyridine-3,5-dicarboxylate] | 178 to 179 |  |
| CCOC(=O)C1=C(C)NC(C)=C(C(=O)OCC)C1c1ccc(F)cc1 [Example 51, Diethyl 4-(4-fluorophenyl)-1,4-dihydro-2,6-dimethylpyridine-3,5-dicarboxylate] | 150 to 151 |  |
| CC1=C(C(=O)OC(C)(C)C)C(c2ccc(F)cc2)C(C(=O)OC(C)(C)C)=C(C)N1 [Example 52, Di-tert-butyl 4-(4-fluorophenyl)-1,4-dihydro-2,6-dimethylpyridine-3,5-dicarboxylate] | 149 to 150 |  |
| COCC1=C(C(=O)OC)C(c2ccc(Br)cc2)C(C(=O)OC)=C(COC)N1 [Example 53, Dimethyl 4-(4-bromophenyl)-1,4-dihydro-2,6-bis(methoxymethyl)pyridine-3,5-dicarboxylate] | 162 to 163 |  |
| CCOC(=O)C1=C(C)N(Cc2ccccc2)C(C)=C(C(=O)OCC)C1c1ccc(Br)cc1 [Example 54, Diethyl 1-benzyl-4-(4-bromophenyl)-1,4-dihydro-2,6-dimethylpyridine-3,5-dicarboxylate] | 168 to 169 |  |
| CC1=C(C(=O)OC(C)(C)C)C(c2ccc(C)cc2C)C(C(=O)OC(C)(C)C)=C(C)N1 [Example 55, Di-tert-butyl 1,4-dihydro-2,6-dimethyl-4-(2,4-dimethylphenyl)pyridine-3,5-dicarboxylate] | 197 to 198 |  |
| CCOC(=O)C1=C(C)NC(C)=C(C(=O)OC)C1c1ccccc1Cl (centres unmarked) [Example 56, 3-Ethyl 5-methyl 4-(2-chlorophenyl)-1,4-dihydro-2,6-dimethylpyridine-3,5-dicarboxylate] | 125 to 127 |  |
| COC(=O)C1=C(C)NC(C)=C(C(C)=O)C1c1ccccc1Cl (centres unmarked) [Example 57, Methyl 5-acetyl-4-(2-chlorophenyl)-1,4-dihydro-2,6-dimethylpyridine-3-carboxylate] | 183 to 184 |  |
| CCOC(=O)C1=C(C)NC(C)=C(C(=O)OC)C1c1ccccc1Br (centres unmarked) [Example 58, 3-Ethyl 5-methyl 4-(2-bromophenyl)-1,4-dihydro-2,6-dimethylpyridine-3,5-dicarboxylate] | 134.5 to 135.5 |  |
| COC(=O)C1=C(C)NC(C)=C(C(C)=O)C1c1ccccc1Br (centres unmarked) [Example 59, Methyl 5-acetyl-4-(2-bromophenyl)-1,4-dihydro-2,6-dimethylpyridine-3-carboxylate] | 146 to 148 |  |
| Clc1ccc(C(c2ccc(Cl)cc2)[n+]2ccn(CC(OCc3ccc(Cl)cc3Cl)c3ccc(Cl)cc3Cl)c2)cc1.[Cl-] (stereo not drawn) [Example R24571, 1-[bis(p-chlorophenyl)methyl]-3-[2-(2,4-di-chloro-β-(2,4-dichlorobenzyl-oxy)phenethyl)]-imidazolium chloride] |  | concentration of Aβ1-40 compared to controls ([1]; 5 μM (FIG. 4)): significantly decreased; concentration of total β-amyloid compared to controls ([1]; 5 μM (FIG. 4)): significantly decreased |
| C#CCN1C(C)=C(C(=O)OC)C(c2cccc([N+](=O)[O-])c2)C(C(=O)OCC)=C1C (centres unmarked) [MRS 1845, N-propargylnitrendipine] |  | concentration of Aβ1-40 compared to controls ([1]; 30 μM (FIG. 3)): significantly decreased; concentration of total β-amyloid compared to controls ([1]; 30 μM (FIG. 3)): significantly decreased |
| COc1ccc(CCCOC(Cn2ccnc2)c2ccc(OC)cc2)cc1.Cl (stereo not drawn) [SKF 96365, 1-[beta-[3-(4-methoxyphenyl)propoxy]-4-methoxyphenethyl]-1H-imidazole hydrochloride] |  | concentration of Aβ1-40 compared to controls ([1]; 15 μM, 24 hours (FIG. 1B)): significantly decreased; concentration of Aβ1-40 compared to controls ([1]; 30 μM (FIG. 2)): significantly decreased; concentration of Aβ1-42 compared to controls ([1]; 30 μM (FIG. 2)): significantly decreased; concentration of total β-amyloid compared to controls ([1]; 30 μM (FIG. 2)): significantly decreased; concentration of Aβ1-40 compared to controls ([1]; 30 μM, 24 hours (FIG. 1B)): significantly decreased |
| Clc1ccccc1C(c1ccccc1)(c1ccccc1)n1ccnc1 [clotrimazole] |  | concentration of Aβ1-40 compared to controls ([1]; 20 μM (FIG. 4)): significantly decreased; concentration of total β-amyloid compared to controls ([1]; 20 μM (FIG. 4)): significantly decreased |
| CN(C)C(=O)C(CCN1CCC(O)(c2ccc(Cl)cc2)CC1)(c1ccccc1)c1ccccc1 [loperamide] |  | concentration of Aβ1-40 compared to controls ([1]; 30 μM (FIG. 4)): significantly decreased; concentration of Aβ1-42 compared to controls ([1]; 30 μM (FIG. 4)): significantly decreased; concentration of total β-amyloid compared to controls ([1]; 30 μM (FIG. 4)): significantly decreased |

Source: patent publication US20060188938A1, “Compounds for inhibiting beta-amyloid production and methods of identifying the compounds” (priority 2005, published 2006)
